Blank lines part the entries; values can stand above or below the substance they belong to.
Tested on: IgE antibodies from patients
Assay: Wheat epitope mapping (2): overlapping 10-amino-acid peptide fragments shifted by one amino acid;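 on Rank of partial sequence as epitope binding to IgE antibody: key = sequence deemed particularly important within the common 15-residue sequence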;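 on epitope sequence binding to IgE antibody, rank (Key/Preferably/More preferably): key of grades: preferably = shorter partial sequence still acting as epitope; more preferably = sequence improving IgE binding; key = particularly important sequence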
Type: binding, human
Procedure, shortened: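 Residual binding was banded as <30% none, 30–<50% poor, 50–<70% somewhat poor and ≥70% retained, relative to the parent overlapping sequence set to 100%. Values were chemiluminescent IgE signals from patient sera after subtracting secondary-antibody-only controls. The peptides were spot-synthesised 10-mers shifted by one amino acid.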

[1] = serum of patient G5 (adult, general immediate type allergy to wheat)
[2] = serum of patient P2 (WDEIA), partial sequence

Epitope sequence binding to IgE antibody, rank of the sequence (serum of patient G6 (adult, general immediate type allergy to wheat), partial sequence): Key
Substance: 2607 (LQQSTYQLVQ; REGION 1..10: note = epitope) [compound 2607]

Epitope sequence binding to IgE antibody, rank of the sequence (Key/Preferably/More preferably) (serum of patient P29 (WDEIA), sequence without X): Key
Substance: 2383 (HDIDRCAY; REGION 1..8: note = epitope) [compound 2383]

Epitope sequence binding to IgE antibody, rank of the sequence (serum of patient P26 (WDEIA), partial sequence): Preferably
Substance: 2722 (YKIGG; REGION 1..5: note = epitope) [compound 2722]

Epitope sequence binding to IgE antibody, rank of the sequence (Key/Preferably/More preferably) (serum of patient G9 (adult, general immediate type allergy to wheat), sequence without X): Key
Substance: 2308 (ERFEK; REGION 1..5: note = epitope) [compound 2308]

Epitope sequence binding to IgE antibody, rank of the sequence (Key/Preferably/More preferably) (serum of patient P9 (WDEIA), sequence without X): Key
Substance: 2347 (VTEI; REGION 1..4: note = epitope) [compound 2347]

Epitope sequence binding to IgE antibody, rank of the sequence (Key/Preferably/More preferably) (serum of patient P14 (WDEIA), sequence without X): Key
Substance: 2279 (LGGIDK; REGION 1..6: note = epitope) [compound 2279]

epitope sequence binding to IgE antibody, rank (Key/Preferably/More preferably) (serum of patient P32 (WDEIA)): Preferably
Substance: 1961 (QQQQFPGQQ; REGION 1..9: note = epitope) [compound 1961]

Epitope sequence binding to IgE antibody, rank of the sequence (serum of patient P29 (WDEIA), partial sequence): Key
Substance: 2510 (PSQLNPQ; REGION 1..7: note = epitope) [compound 2510]

Epitope sequence binding to IgE antibody, rank of the sequence (Key/Preferably/More preferably) (serum of patient P2 (WDEIA), sequence without X): Preferably
Substance: 2219 (IRNYRVAI; REGION 1..8: note = epitope) [compound 2219]

Epitope sequence binding to IgE antibody, rank of the sequence (serum of patient G3 (adult, general immediate type allergy to wheat), partial sequence): Key
Substance: 2626 (LSKRV; REGION 1..5: note = epitope) [compound 2626]

Epitope sequence binding to IgE antibody, rank of the sequence (serum of patient P27 (WDEIA), partial sequence): Key
Substance: 2727 (GIGTVPVGR; REGION 1..9: note = epitope) [compound 2727]

epitope sequence binding to IgE antibody, rank (Key/Preferably/More preferably) (serum of patient P32 (WDEIA)): Key
Substance: 1962 (QQQFPGQQ; REGION 1..8: note = epitope) [compound 1962]

Epitope sequence binding to IgE antibody, rank of the sequence (serum of patient P22 (WDEIA), partial sequence): Key
Substance: 2683 (KGPTL; REGION 1..5: note = epitope) [compound 2683]

Epitope sequence binding to IgE antibody, rank of the sequence [2]: Key
Substance: 2615 (SLSKRV; REGION 1..6: note = epitope) [compound 2615]

Epitope sequence binding to IgE antibody, rank of the sequence [2]: Key
Substance: 2494 (QVSF; REGION 1..4: note = epitope) [compound 2494]

More lines, now with the values behind:

Substance: 1849 (TVRTLQR; REGION 1..7: note = epitope) [compound 1849]
epitope sequence binding to IgE antibody, rank (Key/Preferably/More preferably) (serum of patient P16 (WDEIA)): Preferably

Substance: 1345 (NVEN; REGION 1..4: note = epitope) [compound 1345]
Epitope sequence binding to IgE antibody, rank of the sequence (serum of patient P33 (WDEIA), sequence without X): Key

Substance: 1888 (TVRTLQRT; REGION 1..8: note = epitope) [compound 1888]
epitope sequence binding to IgE antibody, rank (Key/Preferably/More preferably) [1]: Key

Substance: 1575 (QQPQQ; REGION 1..5: note = epitope) [compound 1575]
Rank of partial sequence as epitope binding to IgE antibody (serum of patient P16 (WDEIA), sequence without X): Preferably

Substance: 1253 (PIQQQPQPFP; REGION 1..10: note = epitope) [compound 1253]
Epitope sequence binding to IgE antibody, rank of the sequence (serum of patient P36 (WDEIA), sequence without X): Preferably

Substance: 1866 (TVRTLQR; REGION 1..7: note = epitope) [compound 1866]
epitope sequence binding to IgE antibody, rank (Key/Preferably/More preferably) (serum of patient P27 (WDEIA)): Key

Substance: 1940 (VPLVQ; REGION 1..5: note = epitope) [compound 1940]
epitope sequence binding to IgE antibody, rank (Key/Preferably/More preferably) (serum of patient P21 (WDEIA)): Key

Substance: 1921 (QVPLVQQQ; REGION 1..8: note = epitope) [compound 1921]
epitope sequence binding to IgE antibody, rank (Key/Preferably/More preferably) (serum of patient P12 (WDEIA)): Preferably

Substance: 1595 (QPQQPF; REGION 1..6: note = epitope) [compound 1595]
Rank of partial sequence as epitope binding to IgE antibody (serum of patient P52 (child, general immediate type allergy to wheat), sequence without X): More preferably

Substance: 1746 (EAANFTS; REGION 1..7: note = epitope) [compound 1746]
epitope sequence binding to IgE antibody, rank (Key/Preferably/More preferably) [1]: Preferably

Substance: 1738 (EAANF; REGION 1..5: note = epitope) [compound 1738]
epitope sequence binding to IgE antibody, rank (Key/Preferably/More preferably) (serum of patient P57 (child, general immediate type allergy to wheat)): Key

Substance: 1550 (LVQQQQFLGQ; REGION 1..10: note = epitope) [compound 1550]
Rank of partial sequence as epitope binding to IgE antibody (serum of patient P34 (WDEIA), sequence without X): More preferably

Substance: 1672 (PDKVPFVPIS; REGION 1..10: note = epitope) [compound 1672]
Rank of partial sequence as epitope binding to IgE antibody (serum of patient G4 (adult, general immediate type allergy to wheat), sequence without X): Key

Substance: 1801 (LEALPKFLKN; REGION 1..10: note = epitope) [compound 1801]
epitope sequence binding to IgE antibody, rank (Key/Preferably/More preferably) (serum of patient P17 (WDEIA)): Key
